# In PMC9037210, “Novel 3-(6-methylpyridin-2-yl)coumarin-based chalcones as selective inhibitors of cancer-related carbonic anhydrases IX and XII endowed with anti-proliferative activity” (Journal of Enzyme Inhibition and Medicinal Chemistry, 2022):
# Key:
# BT-549 = test: NCI single (10 µM) dose SRB screening, BT-549; assay type: cell-based, human; settings: 10 µM single dose, BT-549, Breast cancer
# Protocol: (§1) Following NCI protocol, sixteen MPCs were screened for their potential in vitro anticancer effects against human 59 cancer cell panels including prostate, leukaemia melanoma, colon, breast, CNS, renal, NSCLC, and ovarian cancers by National Cancer Institute (USA)[30].
# (§2) The antiproliferative activities of MPC 3 and MPCs 5a–o were first evaluated in a 10 µM dose assay, with SRB assay used to determine cell survival and proliferation. […] The results of the cell growth inhibitory activities for MPCs 5g and 5l towards the different treated tumour cell lines were presented as GI% and presented in Table 3.
# (§3) The anticancer test was conducted using the methods of the Drug Evaluation Branch, National Cancer Institute, Bethesda, MD, using 59 human tumour cell lines derived from nine human tissues. The GI50, TGI, and LC50 dose-response parameters were calculated for each medication.
# hCA I = molecular target: T1, hCA I (Homo sapiens, UniProt P00915); test: stopped-flow CO2 hydrase assay, hCA I; assay type: biochemical; settings: stopped-flow, incubation time of 6 h, mean of three assays; read-out: KI CA I
# T1 construct: made in house
# Protocol: The newly synthesised MPCs (3 and 5a–o) were assessed for their CA inhibition activity employing the stopped-flow CO2 hydrase assay[29] for constitutional hCA (I/II) isoforms and cancer-linked hCA (IX/XII) isoforms.
# The CA inhibition activity for the herein reported MPC derivatives was evaluated against the hCA isoforms I, II, IX, and XII using stopped-flow CO2 hydrase test[7]^,[33–36] (see the Supplementary Material).
# Carbonic anhydrase inhibition assay
# The carbonic anhydrase catalyzed CO2 hydration actions for all coumarin-based […]
# Photophysics stopped-flow. The enzymes are recombinant proteins prepared in our lab. Phenol red (at a concentration of 0.2 mM) has been used as indicator, working at […]
# mM Na2SO4 (for maintaining constant the ionic strength), following the initial rates of the CA-catalyzed CO2 hydration reaction for a period of 10-100 s. The CO2 concentrations ranged from 1.7 to 17 mM for the determination of the kinetic parameters and inhibition constants. For each inhibitor at least six traces of the initial 5-10% of the reaction have been used for determining the initial velocity. The uncatalyzed rates were determined in the same manner and subtracted from the total observed rates. Stock solutions of inhibitor (0.1 mM) were prepared in distilled-deionized water and dilutions up to 0.01 nM were done thereafter with the assay buffer. Inhibitor and enzyme solutions were preincubated together for 6 hrs. at room temperature prior to assay, in order to allow for the formation of the E-I complex. The inhibition constants were obtained by non-linear least-squares methods using PRISM 3 and the Cheng-Prusoff equation, and represent the mean from at least three different
# NCI/ADR-RES = test: NCI single (10 µM) dose SRB screening, NCI/ADR-RES; assay type: cell-based, human; settings: 10 µM single dose, Ovarian cancer
# Protocol: as §1, §2, §3
# DU-145 = test: NCI single (10 µM) dose SRB screening, DU-145; assay type: cell-based, human; settings: 10 µM single dose, DU-145, Prostate cancer
# Protocol: as §1, §2, §3
# SK-OV-3 = test: NCI single (10 µM) dose SRB screening, SK-OV-3; assay type: cell-based, human; settings: 10 µM single dose, SK-OV-3, Ovarian cancer
# Protocol: as §1, §2, §3
# MDA-MB-231 = test: NCI single (10 µM) dose SRB screening, MDA-MB-231; assay type: cell-based, human; settings: 10 µM single dose, MDA-MB-231, Breast cancer
# Protocol: as §1, §2, §3
# HCT-15 = test: NCI single (10 µM) dose SRB screening, HCT-15; assay type: cell-based, human; settings: 10 µM single dose, HCT-15, Colon cancer
# Protocol: as §1, §2, §3
# [1] = test system: fifty-nine cancer cell lines; test: full NCI panel five dose assay, whole panel; assay type: cell-based; settings: five-dose (0.01–100 µM)
# Protocol: (§4) MPC 5l was then chosen for additional biological evaluation in a five-dose (0.01–100 µM) experiment. MPC 5l's GI50, TGI, and LC50 response parameters were obtained for each of the cancer cell lines studied. TGI represents cytostatic impact, whereas GI50 values reflect the extent of growth inhibitory effect. Furthermore, the LC50 parameter is regarded as the cytotoxicity parameter for the hybrid under investigation.
# as §3
# HCT-116 = test: NCI five dose assay, HCT-116; assay type: cell-based, human; settings: HCT-116, Colon cancer
# Protocol: as §4, §3
# MCF7 = test: NCI five dose assay, MCF7; assay type: cell-based, human; settings: MCF7, Breast cancer
# Protocol: as §4, §3
# U251 = test: NCI five dose assay, U251; assay type: cell-based, human
# Protocol: as §4, §3
# SW-620 = test: NCI five dose assay, SW-620; assay type: cell-based, human; settings: SW-620, Colon cancer
# Protocol: as §4, §3
# HOP-92 = test: NCI five dose assay, HOP-92; assay type: cell-based, human; settings: HOP-92, NSC lung cancer
# Protocol: as §4, §3
# K-562 = test: NCI five dose assay, K-562; assay type: cell-based, human
# Protocol: as §4, §3
# LOX IMVI = test: NCI five dose assay, LOX IMVI; assay type: cell-based, human; settings: Melanoma
# Protocol: as §4, §3
# SNB-19 = test: NCI single (10 µM) dose SRB screening, SNB-19; assay type: cell-based, human; settings: 10 µM single dose, SNB-19, CNS cancer
# Protocol: as §1, §2, §3
# SR = test: NCI five dose assay, SR; assay type: cell-based, human; settings: Leukaemia
# Protocol: as §4, §3
# RPMI-8226 = test: NCI five dose assay, RPMI-8226; assay type: cell-based, human; settings: RPMI-8226, Leukaemia
# Protocol: as §4, §3
# [2] = Homo sapiens, read-out: IC50 (the source's name)
# T1 sequence (P00915 whole entry): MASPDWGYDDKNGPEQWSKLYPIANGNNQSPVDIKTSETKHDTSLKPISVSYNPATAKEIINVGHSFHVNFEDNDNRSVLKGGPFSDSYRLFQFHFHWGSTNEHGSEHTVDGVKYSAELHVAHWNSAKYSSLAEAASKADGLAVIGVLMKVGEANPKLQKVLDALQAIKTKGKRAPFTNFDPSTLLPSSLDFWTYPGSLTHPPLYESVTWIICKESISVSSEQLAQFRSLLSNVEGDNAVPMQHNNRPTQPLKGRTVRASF
compound,measurement,setting,value
"Cc1nc(-c2cc3ccccc3oc2=O)ccc1C(=O)/C=C/c1ccc(N2CCOCC2)cc1 [Compound 5g, 3-(6-Methyl-5-[(2E)-3-[4-(morpholin-4-yl)phenyl]prop-2-enoyl]pyridin-2-yl)-2H-chromen-2-one]",GI %,BT-549,23%
same,Ki,hCA I,> 100 µM
same,GI %,NCI/ADR-RES,32%
same,GI %,DU-145,– (Only GI % more than 20% are displayed.)
same,GI %,SK-OV-3,– (Only GI % more than 20% are displayed.)
same,GI %,MDA-MB-231,45%
same,GI %,HCT-15,45%
"Cc1nc(-c2cc3ccccc3oc2=O)ccc1C(=O)/C=C/c1ccccn1 [Compound 5l, 3-(6-Methyl-5-[(2E)-3-(pyridin-2-yl)prop-2-enoyl]pyridin-2-yl)-2H-chromen-2-one]",CC50,"[1]; Homo sapiens, all cancer cells, read-out: LC50 (the source's name)",> 100 µM
same,GI50,"[1]; Homo sapiens, remaining cancer cells (other than the nine of Table 4)",> 100 µM
same,TGI,[1]; all cancer cell lines,> 100 µM
same,GI %,BT-549,– (Only GI % more than 20% are displayed.)
same,TGI,HCT-116,>100 µM
same,GI50,HCT-116; Homo sapiens,6.34 µM
same,LC50,HCT-116; [2],> 100 µM
same,GI50,MCF7; Homo sapiens,3.72 µM
same,LC50,MCF7; [2],> 100 µM
same,TGI,MCF7,>100 µM
same,Ki,hCA I,> 100 µM
same,GI %,NCI/ADR-RES,22%
same,GI50,"U251; Homo sapiens, U-251, U251, CNS cancer",8.49 µM
same,LC50,"U251; Homo sapiens, U-251, U251, CNS cancer, read-out: IC50 (the source's name)",> 100 µM
same,TGI,"U251; U251, CNS cancer",>100 µM
same,GI50,SW-620; Homo sapiens,6.77 µM
same,LC50,SW-620; [2],> 100 µM
same,TGI,SW-620,>100 µM
same,TGI,HOP-92,>100 µM
same,GI50,HOP-92; Homo sapiens,7.25 µM
same,LC50,HOP-92; [2],> 100 µM
same,GI50,"K-562; Homo sapiens, K562, K-562, Leukaemia",6.47 µM
same,LC50,"K-562; Homo sapiens, K562, K-562, Leukaemia, read-out: IC50 (the source's name)",> 100 µM
same,TGI,"K-562; K-562, Leukaemia",>100 µM
same,GI50,LOX IMVI; Homo sapiens,3.2 µM
same,LC50,LOX IMVI; [2],> 100 µM
same,TGI,LOX IMVI,>100 µM
same,GI %,SNB-19,28%
same,GI %,DU-145,52%
same,GI %,SK-OV-3,– (Only GI % more than 20% are displayed.)
same,GI50,SR; Homo sapiens,5.3 µM
same,LC50,SR; [2],> 100 µM
same,TGI,SR,>100 µM
same,GI %,MDA-MB-231,87%
same,GI %,HCT-15,133%
same,GI50,RPMI-8226; Homo sapiens,3.41 µM
same,LC50,RPMI-8226; [2],> 100 µM
same,TGI,RPMI-8226,>100 µM
